For data set [1], the system named is Giardia intestinalis. In words: Antiprotozoan activity against Giardia intestinalis after 72 hr by MTT assay. It counts as functional, organism-based. As to conditions: Giardia duodenalis.
A further data set concerns Trypanosoma lewisi. In words: Antiprotozoan activity against Trypanosoma lewisi after 72 hr by MTT assay. It counts as functional, organism-based. Background: Tetrazolium assays rely on reduction of a dye to a coloured formazan, in cell work by metabolically active cells.
A further data set deals with Leishmania tarentolae. In words: Antiprotozoan activity against Leishmania tarentolae after 72 hr by MTT assay. Type of data set: functional, organism-based.
Data set [2] concerns Giardia intestinalis. As to the kind of experiment: Antiprotozoan activity against Giardia intestinalis assessed as decrease in viability at 12.1 to 21.5 uM after 72 hr by microscopic analysis. Type of data set: functional, organism-based. As to conditions: Giardia duodenalis.
A short description of data set [3]: Selectivity index, ratio of IC50 for mouse B16 cells to IC50 for Leishmania tarentolae. Type of data set: toxicity, cell-based. Particulars: B16 cells versus Leishmania tarentolae, read-out: Ratio IC50.
The nature of data set [4]: Selectivity index, ratio of IC50 for mouse L1210 cells to IC50 for Giardia lamblia.
Data set [5] in a line: Selectivity index, ratio of IC50 for mouse L1210 cells to IC50 for Leishmania tarentolae. As to conditions: L1210 cells versus Leishmania tarentolae, read-out: Ratio IC50. Type of data set: toxicity, cell-based.
Data set [6] can be described thus: Selectivity index, ratio of IC50 for mouse B16 cells to IC50 for Trypanosoma lewisi. Type of data set: toxicity, cell-based. As to conditions: B16 cells versus Trypanosoma lewisi, read-out: Ratio IC50.
A short description of data set [7]: Selectivity index, ratio of IC50 for mouse B16 cells to IC50 for Giardia lamblia.
The nature of data set [8]: Selectivity index, ratio of IC50 for mouse L1210 cells to IC50 for Trypanosoma lewisi. It counts as toxicity, cell-based. As to conditions: L1210 cells versus Trypanosoma lewisi, read-out: Ratio IC50.
A further data set relates to Plasmodium falciparum. In words: Antiprotozoan activity against Plasmodium falciparum assessed as inhibition of [3H]hypoxanthine incorporation incubated for 24 hr prior to [3H]hypoxanthine addition measured after 18 hr by liquid scintillation counting. Type of data set: functional, organism-based.
Another data set relates to B16. In words: Cytotoxicity against Mus musculus (mouse) B16 cells after 72 hr by MTT assay. Particulars: B16, 72 h. It counts as cell-based.
The test system of another data set is L1210. As to the kind of experiment: Cytotoxicity against Mus musculus (mouse) L1210 cells after 72 hr by MTT assay. Type of data set: cell-based. As to conditions: L1210, 72 h.

This is an account of results in ChEMBL document CHEMBL3044801, “Synthesis and antiprotozoal activity of 1,2,3,4-tetrahydro-2-thioxopyrimidine analogs of combretastatin A-4” (Med Chem Res, 2011).

Calls of active or inactive are those of the source. No cut-off for these calls is given here.

As to `COc1ccc(C2C=C(c3cc(OC)c(OC)c(OC)c3)NC(=S)N2)cc1OC` (stereo not drawn), the IC50 stood at 22.7 µM in the data set with Giardia intestinalis [1], 52.1 µM with Trypanosoma lewisi and 36.4 µM in the data set on Leishmania tarentolae.

With `COc1cc(OC)c(C2C=C(c3cc(OC)c(OC)c(OC)c3)NC(=S)N2)c(OC)c1` (stereo not drawn), the IC50 with Giardia intestinalis [1] was determined as 20.3 µM; with Trypanosoma lewisi, 29.6 µM; in the data set on Leishmania tarentolae, 46.6 µM.

In the case of `COc1ccc(C2C=C(c3cc(OC)c(OC)c(OC)c3)NC(=S)N2)cc1O` (stereo not drawn), in the data set with Giardia intestinalis [2], the result was Active. Moreover, the half-inhibitory concentration (IC50) in the data set on Giardia intestinalis [1] came out at 21.5 µM; in the data set with Trypanosoma lewisi it was 49.2 µM; in the data set with Leishmania tarentolae it was 12.1 µM.

As to `COc1cc(C2=CC(c3ccc([N+](=O)[O-])cc3)NC(=S)N2)cc(OC)c1OC` (stereo not drawn), the selectivity ratio in [3] worked out at 8; in [5] it was 8; in [6], 2; in data set [8], 2. Further, the “Ratio IC50” value in data set [4] and in data set [7] was 4 throughout. In addition, the values for the IC50 with Giardia intestinalis [1], with Trypanosoma lewisi and in the data set on Leishmania tarentolae were 21 µM, 50 µM and 13.7 µM, respectively.

For `COc1ccc(C2C=C(c3cc(OC)c(OC)c(OC)c3)NC(=S)N2)cc1[N+](=O)[O-]` (stereo not drawn), the selectivity ratio was 8 in data set [3], 8 in [5], 2 in data set [6] and 2 in data set [8]. In addition, the “Ratio IC50” value in [4] and in data set [7] was 4 each time. For the same compound, the 50% inhibitory concentration (IC50) was 24.3 µM in the data set with Giardia intestinalis [1], 39.5 µM in the data set on Trypanosoma lewisi and 12.5 µM with Leishmania tarentolae.

For the compound `COc1cc(C2=CC(c3ccc(Cl)cc3)NC(=S)N2)cc(OC)c1OC` (stereo not drawn), the IC50 in the data set on Giardia intestinalis [1] stood at 46.7 µM; in the data set on Trypanosoma lewisi, 27 µM; in the data set on Leishmania tarentolae, 10.2 µM.

With `COc1ccc(C2C=C(c3cc(OC)c(OC)c(OC)c3)NC(=S)N2)cc1` (stereo not drawn), the 50% inhibitory concentration (IC50) worked out at 22.3 µM in the data set with Giardia intestinalis [1]; 14.5 µM with Plasmodium falciparum; 17.9 µM in the data set on Trypanosoma lewisi; 12.5 µM in the data set with Leishmania tarentolae; 36 µM in the data set on B16; 41 µM in the data set with L1210.

On to `COc1ccc(OC)c(C2=CC(c3cc(OC)ccc3OC)NC(=S)N2)c1` (stereo not drawn), for which the IC50 in the data set with Giardia intestinalis [1] was more than 100 µM; with Plasmodium falciparum it was 27.9 µM; in the data set on Trypanosoma lewisi, 27.3 µM; with Leishmania tarentolae, 18 µM; with B16, more than 100 µM; in the data set on L1210 it was more than 100 µM.

For `COc1ccc(OC)c(C2=CC(c3cc(OC)c(OC)c(OC)c3)NC(=S)N2)c1` (stereo not drawn), the IC50 in the data set with Giardia intestinalis [1] was more than 100 µM; in the data set with Plasmodium falciparum it was 13.3 µM; in the data set with Trypanosoma lewisi, 15.7 µM; in the data set on Leishmania tarentolae it was 16.8 µM; in the data set on B16 it was 0.5 µM; in the data set with L1210, 6 µM.

As for `COc1ccc(C2=CC(c3ccc(OC)c(OC)c3)NC(S)=N2)cc1` (stereo not drawn), the IC50 in the data set with Giardia intestinalis [1] was more than 100 µM; in the data set with Plasmodium falciparum it was 31 µM; in the data set with Trypanosoma lewisi, 25.8 µM; in the data set with Leishmania tarentolae, 27.2 µM; with B16, more than 100 µM; in the data set on L1210, more than 100 µM.

As to `COc1ccc(C2C=C(c3cc(OC)ccc3OC)NC(=S)N2)cc1` (stereo not drawn), the IC50 was more than 100 µM in the data set on Giardia intestinalis [1]; 69.4 µM with Plasmodium falciparum; 16.5 µM with Trypanosoma lewisi; 11.4 µM in the data set on Leishmania tarentolae; 80 µM in the data set on B16; 87 µM with L1210.

`COc1cc(C2=CC(c3cc(OC)c(OC)c(OC)c3)NC(=S)N2)cc(OC)c1OC` (stereo not drawn): the values for the IC50 with Giardia intestinalis [1], in the data set with Trypanosoma lewisi and in the data set on Leishmania tarentolae were 24.8 µM, 29.3 µM and 46.6 µM, respectively.

For the compound `COc1ccc(OC)c(C2=CC(c3ccc(OC)c([N+](=O)[O-])c3)NC(=S)N2)c1` (stereo not drawn), the 50% inhibitory concentration (IC50) came to 57.8 µM in the data set with Giardia intestinalis [1], 33.3 µM with Trypanosoma lewisi and 21.1 µM in the data set on Leishmania tarentolae.

As for `COc1cccc(C2C=C(c3cc(OC)c(OC)c(OC)c3)NC(=S)N2)c1` (stereo not drawn), the IC50 in the data set on Giardia intestinalis [1] stood at 40.4 µM; with Trypanosoma lewisi, 24.3 µM; in the data set with Leishmania tarentolae it was 19.4 µM.

With `COc1ccc(OC)c(C2C=C(c3cc(OC)c(OC)c(OC)c3)NC(=S)N2)c1` (stereo not drawn), the IC50 was found to be 23.5 µM in the data set with Giardia intestinalis [1], 48.4 µM in the data set on Trypanosoma lewisi and 30.3 µM with Leishmania tarentolae.

For `COc1ccc(C2=CC(c3c(OC)cc(OC)cc3OC)NC(=S)N2)cc1` (stereo not drawn), the half-maximal inhibitory concentration (IC50) is more than 100 µM with Giardia intestinalis [1]; 14.6 µM in the data set on Plasmodium falciparum; 13.4 µM with Trypanosoma lewisi; 25.1 µM in the data set with Leishmania tarentolae; 25 µM with B16; 85 µM in the data set on L1210.

Take `COc1ccc(C2=CC(c3ccc(OC)cc3)NC(=S)N2)cc1` (stereo not drawn): the IC50 in the data set with Plasmodium falciparum was 25 µM; with Trypanosoma lewisi it was 15.2 µM; in the data set on Leishmania tarentolae, 17.8 µM; in the data set with B16 it was more than 100 µM; in the data set on L1210, more than 100 µM.

On to `COc1cc(OC)c(C2C=C(c3cc(OC)ccc3OC)NC(=S)N2)c(OC)c1` (stereo not drawn), for which the 50% inhibitory concentration (IC50) in the data set on Giardia intestinalis [1] turned out to be 33.8 µM; with Plasmodium falciparum, 17.3 µM; in the data set with Trypanosoma lewisi, 25 µM; in the data set with Leishmania tarentolae, 10.4 µM.

Broadly, the IC50 is the concentration that inhibits the measured activity by half.
